Results as given in patent US20080096967A1, “Formulations for Injection of Catecholic Butanes, Including Ndga Compounds, Into Animals” (priority 2005, published 2008).

Assay: M4N solubility in water miscible organic solvents up to 48 hours (RP-HPLC)
Assay type: physicochemical
Description: To prepare M4N samples, 200 μL of 100 mg/mL M4N dissolved in acetone were placed in 1.5 mL polypropylene microtubes. The solvent was allowed to evaporate at room temperature for 48 hours until the samples were completely dry.
The water miscible organic solvent formulations were prepared in 15 mL polypropylene centrifuge tubes. 10 mL of each formulation was prepared. Each solvent was added on the basis of weight using its respective density at 25° C. Following brief mixing, each formulation was filtered through a 0.45 μm surfactant free cellulose acetate (“SFCA”) filter into a fresh 15 mL tube. Formulations were kept at room temperature until ready for use.
At each time point, the samples were centrifuged for 2 minutes at 13,000 rpm to pellet any solid M4N. As noted in Table 25, over half of the formulation conditions examined were able to solubilize M4N to a concentration of greater than 10 mg/Ml.

## COc1ccc(C[C@@H](C)[C@@H](C)Cc2ccc(OC)c(OC)c2)cc1OC [Formulation M4N, meso-1,4-bis(3,4-dimethoxyphenyl)-2,3-dimethylbutane]
44% EtOH, 50% T80, 6% DMA, 24 hrs at room temperature
  M4N solubility: 22410 µg/mL
44% EtOH, 50% T80, 6% DMA, 48 hrs at room temperature
  M4N solubility: 23000 µg/mL
48% EtOH, 50% Crem, 2% Benz, 2 hrs at room temperature
  M4N solubility: 14020 µg/mL
48% EtOH, 50% Crem, 2% Benz, 24 hrs at room temperature
  M4N solubility: 18170 µg/mL
48% EtOH, 50% Crem, 2% Benz, 48 hrs at room temperature
  M4N solubility: 18510 µg/mL
48% EtOH, 50% Glycerol, 2% Benz, 2 hrs at room temperature
  M4N solubility: 1250 µg/mL
48% EtOH, 50% Glycerol, 2% Benz, 24 hrs at room temperature
  M4N solubility: 1660 µg/mL
48% EtOH, 50% Glycerol, 2% Benz, 48 hrs at room temperature
  M4N solubility: 1730 µg/mL
48% EtOH, 50% PEG300, 2% Benz, 2 hrs at room temperature
  M4N solubility: 14510 µg/mL
48% EtOH, 50% PEG300, 2% Benz, 24 hrs at room temperature
  M4N solubility: 15780 µg/mL
48% EtOH, 50% PEG300, 2% Benz, 48 hrs at room temperature
  M4N solubility: 16490 µg/mL
48% EtOH, 50% PG, 2% Benz, 2 hrs at room temperature
  M4N solubility: 4420 µg/mL
48% EtOH, 50% PG, 2% Benz, 24 hrs at room temperature
  M4N solubility: 4790 µg/mL
48% EtOH, 50% PG, 2% Benz, 48 hrs at room temperature
  M4N solubility: 4920 µg/mL
48% EtOH, 50% T80, 2% Benz, 2 hrs at room temperature
  M4N solubility: 16170 µg/mL
48% EtOH, 50% T80, 2% Benz, 24 hrs at room temperature
  M4N solubility: 19550 µg/mL
48% EtOH, 50% T80, 2% Benz, 48 hrs at room temperature
  M4N solubility: 19960 µg/mL
50% EtOH, 50% Crem, 2 hrs at room temperature
  M4N solubility: 13950 µg/mL
50% EtOH, 50% Crem, 24 hrs at room temperature
  M4N solubility: 17580 µg/mL
50% EtOH, 50% Crem, 48 hrs at room temperature
  M4N solubility: 18490 µg/mL
50% EtOH, 50% Glycerol, 2 hrs at room temperature
  M4N solubility: 1140 µg/mL
50% EtOH, 50% Glycerol, 24 hrs at room temperature
  M4N solubility: 1530 µg/mL
50% EtOH, 50% Glycerol, 48 hrs at room temperature
  M4N solubility: 1600 µg/mL
50% EtOH, 50% PEG300, 24 hrs at room temperature
  M4N solubility: 15070 µg/mL
50% EtOH, 50% PEG300, 48 hrs at room temperature
  M4N solubility: 16610 µg/mL
50% EtOH, 50% PG, 2 hrs at room temperature
  M4N solubility: 3640 µg/mL
50% EtOH, 50% PG, 24 hrs at room temperature
  M4N solubility: 4150 µg/mL
50% EtOH, 50% PG, 48 hrs at room temperature
  M4N solubility: 4430 µg/mL
50% EtOH, 50% T80, 2 hrs at room temperature
  M4N solubility: 15910 µg/mL
50% EtOH, 50% T80, 24 hrs at room temperature
  M4N solubility: 19280 µg/mL
50% PG, 50% Crem, 2 hrs at room temperature
  M4N solubility: 2940 µg/mL
50% PG, 50% Crem, 24 hrs at room temperature
  M4N solubility: 6330 µg/mL
50% PG, 50% Crem, 48 hrs at room temperature
  M4N solubility: 7200 µg/mL
50% PG, 50% Glycerol, 2 hrs at room temperature
  M4N solubility: 130 µg/mL
50% PG, 50% Glycerol, 24 hrs at room temperature
  M4N solubility: 480 µg/mL
50% PG, 50% Glycerol, 48 hrs at room temperature
  M4N solubility: 510 µg/mL
50% PG, 50% PEG300, 2 hrs at room temperature
  M4N solubility: 2650 µg/mL
50% PG, 50% PEG300, 24 hrs at room temperature
  M4N solubility: 4880 µg/mL
50% PG, 50% PEG300, 48 hrs at room temperature
  M4N solubility: 5300 µg/mL
50% PG, 50% T80, 2 hrs at room temperature
  M4N solubility: 5070 µg/mL
50% PG, 50% T80, 24 hrs at room temperature
  M4N solubility: 8160 µg/mL
50% PG, 50% T80, 48 hrs at room temperature
  M4N solubility: 8410 µg/mL
100% Crem, 2 hrs at room temperature
  M4N solubility: 1190 µg/mL
100% Crem, 24 hrs at room temperature
  M4N solubility: 7510 µg/mL
100% Crem, 48 hrs at room temperature
  M4N solubility: 12480 µg/mL
100% EtOH, 2 hrs at room temperature
  M4N solubility: 7200 µg/mL
100% EtOH, 24 hrs at room temperature
  M4N solubility: 7220 µg/mL
100% EtOH, 48 hrs at room temperature
  M4N solubility: 7910 µg/mL
100% Glycerol, 2 hrs at room temperature
  M4N solubility: XXX (not detectable)
100% Glycerol, 24 hrs at room temperature
  M4N solubility: 80 µg/mL
100% Glycerol, 48 hrs at room temperature
  M4N solubility: XXX (not detectable)
glycerol, 2 and 48 hours
  M4N solubility: not detectable
